Test results taken from ChEMBL document CHEMBL4177744, “Discovery of novel scaffolds for γ-secretase modulators without an arylimidazole moiety” (Bioorg Med Chem, 2018).
pIC50: −log10 of the molar value.

Legend:
CYP3A4 [1] = molecular target: T1, CYP3A4 (Homo sapiens, UniProt P08684); test: Inhibition of CYP3A4 in human liver microsomes assessed as residual activity at 5 uM using midazolam as substrate after 20 mins in presence of NADPH by LC-MS/MS analysis relative to control; format: ADME; details: probe midazolam, read-out: Activity
T1 sequence (P08684 whole entry): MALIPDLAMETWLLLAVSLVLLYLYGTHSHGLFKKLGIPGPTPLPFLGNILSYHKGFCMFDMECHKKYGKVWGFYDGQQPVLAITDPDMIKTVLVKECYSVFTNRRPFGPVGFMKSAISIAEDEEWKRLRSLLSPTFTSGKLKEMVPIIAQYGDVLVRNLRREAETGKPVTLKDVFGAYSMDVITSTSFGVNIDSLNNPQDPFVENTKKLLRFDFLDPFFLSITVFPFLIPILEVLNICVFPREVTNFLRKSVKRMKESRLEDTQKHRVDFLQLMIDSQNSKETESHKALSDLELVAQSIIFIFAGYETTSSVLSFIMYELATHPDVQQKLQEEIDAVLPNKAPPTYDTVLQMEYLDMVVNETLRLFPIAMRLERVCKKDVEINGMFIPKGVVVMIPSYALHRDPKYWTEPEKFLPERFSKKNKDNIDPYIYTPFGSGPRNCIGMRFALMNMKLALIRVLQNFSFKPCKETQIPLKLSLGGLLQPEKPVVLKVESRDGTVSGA

CYP3A4 [2] = molecular target: T1, CYP3A4; test: Inhibition of CYP3A4 in human liver microsomes assessed as residual activity at 5 uM using midazolam as substrate preincubated for 30 mins followed by substrate addition measured after 20 mins in presence of NADPH by LC-MS/MS analysis relative to control; format: ADME; details: probe midazolam, read-out: Activity
Gamma-secretase = test: Modulatory activity against gamma-secretase in human SK-N-BE(2) cells assessed as reduction in amyloid beta 42 production after 6 hrs by sandwich ELISA; format: cell-based
[3] = Intrinsic clearance in CD-1 mouse liver microsomes assessed per mg protein at 0.2 uM by LC-MS/MS analysis; format: ADME, microsome; details: read-out: CLH
[4] = Brain to plasma partition coefficient, Kp in ddY mouse at 30 mg/kg, ip after 1 hr by LC-MS/MS analysis; format: ADME, organism-based
[5] = Drug uptake in ddY mouse plasma at 30 mg/kg, ip after 3 hrs by LC-MS/MS analysis; format: ADME, organism-based
[6] = Drug uptake in ddY mouse plasma at 30 mg/kg, ip after 1 hr by LC-MS/MS analysis; format: ADME, organism-based
[7] = Drug uptake in ddY mouse brain at 30 mg/kg, ip after 1 hr by LC-MS/MS analysis; format: ADME, organism-based; details: in vivo
[8] = […], Kp in ddY mouse brain at 30 mg/kg, ip after 3 hrs by LC-MS/MS analysis; format: ADME, organism-based; details: BLD = below limit of detection
[9] = Brain to plasma partition coefficient, Kp in ddY mouse at 30 mg/kg, po after 3 hrs by LC-MS/MS analysis; format: ADME, organism-based
[10] = Drug uptake in ddY mouse brain at 30 mg/kg, po after 1 hr by LC-MS/MS analysis; format: ADME, organism-based; details: in vivo
[11] = Drug uptake in ddY mouse brain at 30 mg/kg, po after 3 hrs by LC-MS/MS analysis; format: ADME, organism-based; details: in vivo
[12] = Brain to plasma partition coefficient, Kp in ddY mouse at 30 mg/kg, po after 1 hr by LC-MS/MS analysis; format: ADME, organism-based
[13] = Drug uptake in ddY mouse plasma at 30 mg/kg, po after 1 hr by LC-MS/MS analysis; format: ADME, organism-based
[14] = Drug uptake in ddY mouse plasma at 30 mg/kg, po after 3 hrs by LC-MS/MS analysis; format: ADME, organism-based

Row | Structure (SMILES) | pIC50 (Gamma-secretase) | microsomal CLint at 0.2 µM [3] [µL/min/mg] | other results
1 | COc1cc(/C=C2\CCCN([C@@H](C)c3ccc(F)cc3)C2=O)ccc1-n1cnc(C)c1 |  |  | activity at 20 min, 5 µM (CYP3A4 [1]): 40%; activity at 20 min, 5 µM (CYP3A4 [2]): 29%
2 | CCCCN1CCC(c2c(C)nc3c(OCc4ccccc4C)cccn23)CC1 | 5.06 | > 1000 | 
3 | Cc1ccccc1COc1cccn2c(C3CCN(C)CC3)c(C)nc12 | 5.01 |  | 
4 | Cc1nc2c(OCc3ccccc3)cccn2c1CN(C)CCN(C)C | < 4.30 |  | 
5 | CCNC(=O)c1ccc(-c2c(C)nc3c(OCc4ccccc4C)cccn23)cc1 | 5.64 |  | 
6 | Cc1nc2c(OCc3ccccc3)cccn2c1C1CCN(C2CCCCC2)CC1 | 5.24 |  | 
7 | CCCC(=O)N1CCC(c2c(C)nc3c(OCc4ccccc4C)cccn23)CC1.Cl | 6.16 | > 1000 | Kp at 1 h [4]: 1; concentration at 3 h [5]: 9.4 nM; concentration at 1 h [6]: 700 nM; Drug uptake [7]: 0.71 nmol/g; Kp [8]: Bld
8 | CCCCc1ccc(-c2c(C)nc3c(OCc4ccccc4C)cccn23)cc1 | < 4.30 | 628 | 
9 | CCOC(=O)c1ccc(-c2c(C)nc3c(OCc4ccccc4C)cccn23)cc1 | 5.74 |  | 
10 | CCOC(=O)N1CCC(c2c(C)nc3c(OCc4ccccc4C)cccn23)CC1 | 5.89 |  | 
11 | Cc1ccccc1COc1cccn2c(-c3ccncc3)c(C)nc12 | 5.15 |  | 
12 | CCN1Cc2cc(-c3c(C)nc4c(OCc5ccccc5C)cccn34)ccc2C1=O.Cl | 6.41 | 611 | Kp at 3 h [9]: 0.72; Drug uptake [10]: 1.9 nmol/g; activity at 20 min, 5 µM (CYP3A4 [1]): 85%; Drug uptake [11]: 0.69 nmol/g; Kp at 1 h [12]: 0.72; concentration at 1 h [13]: 2500 nM; activity at 20 min, 5 µM (CYP3A4 [2]): 87%; concentration at 3 h [14]: 960 nM
13 | CCN(C)C(=O)c1ccc(-c2c(C)nc3c(OCc4ccccc4C)cccn23)cc1 | < 5.00 |  | 
